Experimental data reported in publication PMC5711933, “Intracellular biomass flocculation as a key mechanism of rapid bacterial killing by cationic, amphipathic antimicrobial peptides and peptoids” (Scientific Reports, 2017).
Where two headings read alike, the source gives them in different places. Marks after values point to notes of the source that are not given here. Non-standard residues stand in square brackets, D forms with d. Residues, ends and D or L forms follow the SMILES beside them. N(1S-Me-propyl)Gly = CC[C@H](C)NCC(=O)O; Nspe = C[C@H](NCC(=O)O)c1ccccc1; Nlys = NCCCCNCC(=O)O

How the values were obtained:
[1] = RP-HPLC elution (% ACN) as measure of hydrophobicity; format: physicochemical; conditions: chromatographic hydrophobicity; gradient of 5–95% acetonitrile (ACN) over 45 minutes, C18 column, 0.2 mL/min; average of three replicates
[2] = test system: E. coli ATCC 35218; format: cell-based; conditions: CAMHB, 35 °C, 16 h, final 5 × 10^5 CFU/mL, reproducible between three independent replicates
Description: MICs were determined according to CLSI M7-A6 protocols in a 96-well microtiter plate. In test wells, 50 μL bacterial inoculum (1 × 10^6 CFU/ml) in cation-adjusted Mueller-Hinton broth (CAMHB) was added to 50 μL peptoid solution in CAMHB (prepared by 1:2 serial dilutions). Positive controls contained 50 μL inoculum and 50 μL CAMHB without peptoid. […] MIC values reported were reproducible between three independent experimental replicates, each consisting of two parallel trials.

[3] = test system: Erythrocytes; test: Hemolysis assay; format: cell-based; conditions: human erythrocytes in PBS pH 7.4, 1 h at 37 °C, A350; three independent replicates (two for LL-37 and fowlicidin-1)
Description: The plate was then centrifuged at 1200 g for 15 min, 100 μL of the supernatant from each well transferred to a fresh microtiter plate, and A350 measured.

[4] = test system: E. coli ATCC 35218; test: Bacterial count by plating after 1-hour treatment, before SEM sample preparation; format: cell-based; conditions: 1 hour in PBS, control 5 × 10^5 CFU/mL
Description: E. coli was treated with 10 μM peptide or peptoid for 1 hour in phosphate-buffered saline (PBS). […] We used 10 μM peptide/peptoid for all samples since it is near the MICs of the majority of the oligomers.
Before fixation, aliquots of each samples were serially diluted and plated on agar to determine the concentration of live bacteria remaining after the 1-hour treatment. […] (1) SEM samples were treated in PBS (as discussed above), whereas MIC assays are performed in cation-adjusted Mueller-Hinton broth. AMPs and ampetoids are known to interact with ions in the media (for example, when switching from plain Mueller-Hinton broth to cation-adjusted Mueller-Hinton broth)[1], so differences in activity may be due to changes in media composition. (2) the treatments were for one hour only, whereas MICs are determined after 16 hours of growth. […] (3) Some of these compounds may cause inhibition of growth without causing bacterial cell death (i.e., they are bacteriostatic—which is what the MIC indicates—rather than bactericidal—which is determined by plating and counting colonies). […]
Overnight cultures of E. coli ATCC 35218 were centrifuged for 10 min and 2500 × g at room temperature, then resuspended in PBS. […] Bacterial concentrations of the diluted suspensions were calculated from their OD590 values using optical density curves derived from pre-determined concentrations. […]

[5] = test system: E. coli ATCC 35218; test: Bacterial count by plating after treatment, before TEM sample preparation; format: cell-based; conditions: for TEM: Bacterial count after 10 µM treatment (% of control) / TEM: Bacterial count after 100 µM treatment (% of control): 1 hour in PBS pH 7.4, control 1 × 10^8 CFU/mL
Description: E. coli ATCC 35218, grown overnight at 35 °C in Mueller-Hinton broth (MHB), were resuspended in 1X (150 mM) PBS, pH 7.4, and diluted to a concentration of 1 × 10^8 CFU/mL. Aqueous peptide/peptoid stock solutions were added to 1 mL aliquots of the suspension to the desired final concentration. After 1 hour, small volumes of each sample were serially diluted, plated, and incubated overnight at 35 °C, to be counted the following day. The remaining volume of each sample was centrifuged, and the pellet resuspended and enrobed in 5–10 µL of 2% low-melting agarose (gelling temperature 25° ± 5 °C) then drawn up into the tip of a Pasteur pipette. The solidified rods were extruded into fixative (2% glutaraldehyde, 2% paraformaldehyde, 50 mM PBS, pH 7.4). […] 50 nm thin sections of embedded samples were cut using a diamond knife, stained for 5 min in 5% aqueous uranyl acetate, then rinsed in H2O. Sections were examined in a JEOL 1230 TEM. Experimental conditions were each repeated in at least two independent trials. For each replicate of each sample, bacteria across the thin section were first surveyed to determine morphological characteristics representative of that sample, then images were captured of at least five bacteria displaying those morphologies with an emphasis on clean (i.e., orthogonal) transverse and/or longitudinal sections. Each image shown is thus representative of the ultrastructural characteristics observed in bacteria throughout a given sample and between replicates.

[6] = test system: EGFP-Luc plasmid; test: DNA retardation assay (gel electrophoresis); format: binding; conditions: EGFP-Luc plasmid in TBS, complexes 20 min at room temperature, 1–2% agarose gel
Description: DNA retardation was analyzed by gel electrophoresis. Peptoid/peptide-DNA complexes were formed by adding 10 µL of peptide/peptoid solution of varying concentrations to 10 µL DNA solution (EGFP-Luc plasmid in Tris-buffered saline (TBS) buffer), and the resulting solution was mixed by gentle aspiration. Complexes were incubated for 20 min at room temperature. After complex formation, 20 µL of each sample were loaded onto a 1–2% agarose gel in Tris/borate/EDTA (TBE) buffer, which ran at 120 V for 15 min. DNA bands on the gel were visualized under UV light by ethidium bromide staining.

[7] = test system: Bioluminescent P. aeruginosa; format: cell-based, Pseudomonas aeruginosa; conditions: 12.5 µM, LB, 37 °C
Description: The decrease in bioluminescence at 37 °C was measured for a range of concentrations from 0 – 100 μM (Supp. Figs. S6 and S7).
Bioluminescent P. aeruginosa [73] was grown at 37 °C in Luria-Bertani (LB) broth. […] In a 96-well plate, 50 µL of P. aeruginosa solution (1 × 10^6 CFU/mL) was added to 50 µL of antimicrobial solution, and the bioluminescence was measured using an IVIS imaging system (a Xenogen product from Caliper Life Sciences, Hopkinton, MA) at 10 min intervals for 2 h. The reported values are the average of three independent experiments with two replicates each.

[8] = test system: E. coli bacterial ribosomes; test: Aggregation of bacterial ribosomes (optical density at 550 nm); format: biochemical; conditions: 1 µM ribosome solution, antimicrobial up to 800 µM, 10 min, λ = 550 nm
Description: In a microcentrifuge tube, 5 µl of 1 µM purified bacterial ribosome solution (~40X diluted (v/v) from their intracellular concentration in bacterial cytosol)[62] was incubated with 5 µl of antimicrobial solution in a concentration range of 0–800 µM for 10 min. The absorbance of the solution was measured by UV-Vis spectroscopy at λ = 550 nm by a spectrophotometer (ND-1000, Thermo Scientific, Wilmington, DE). The values are reported as the average of three independent experiments with three replicates each.

SMILES | % ACN at RP-HPLC elution [1] | E. coli ATCC 35218 MIC [2] | HD10 (hemolytic dose; concentration for 10% hemolysis) [3] | HD50 (hemolytic dose; concentration for 50% hemolysis) [3] | SEM: Bacterial count after 10 µM treatment (% of control) [4] | TEM: Bacterial count after 10 µM treatment (% of control) [5] | Bacteria remaining after 5-min treatment ([5]; 100 µM, 5 minutes) | Bacteria remaining after 5-min treatment (% of bacteria in the control) ([5]; 100 µM, 5 minutes) | TEM: Bacterial count after 100 µM treatment (% of control) ([5]; 100 µM) | Bacterial killing after 15-min, 30-min, and 60-min treatments ([5]; 100 µM, 15, 30 and 60 minutes) | Retardation assay: mass of compound required to completely retard migration of 1 µg of DNA [6] | Decrease in bioluminescence within 10 min ([7]; 10 min, average of three independent experiments with two replicates each) | E. coli ATCC 35218 MIC ([2]; listed as peptoid 2) | Activity in bioluminescence kinetics assay (in words) ([7]; up to 2 h) | Aggregation of ribosomes (in words) [8]
C[C@@H](c1ccccc1)N(CC(N)=O)C(=O)CN(C(=O)CN(CCCCN)C(=O)CN(C(=O)CN(C(=O)CN(CCCCN)C(=O)CN(C(=O)CN(C(=O)CN(CCCCN)C(=O)CN(C(=O)CN(C(=O)CNCCCCN)[C@@H](C)c1ccccc1)[C@@H](C)c1ccccc1)[C@@H](C)c1ccccc1)[C@@H](C)c1ccccc1)[C@@H](C)c1ccccc1)[C@@H](C)c1ccccc1)[C@@H](C)c1ccccc1 [compound 1] (H-[Nlys][Nspe][Nspe][Nlys][Nspe][Nspe][Nlys][Nspe][Nspe][Nlys][Nspe][Nspe]-NH2) | 64.2% | 6.3 µM | 14 µM | 62 µM | 40 % of control | 0.2 % of control | 1 × 10^4 CFU/mL | 0.01% | 0 (0) % of control | all bacteria were killed | 3.0 µg | ~ 99.9% |  |  | 
CC[C@H](C)N(CC(N)=O)C(=O)CN(C(=O)CN(CCCCN)C(=O)CN(C(=O)CN(C(=O)CN(CCCCN)C(=O)CN(C(=O)CN(C(=O)CN(CCCCN)C(=O)CN(C(=O)CN(C(=O)CNCCCCN)[C@@H](C)CC)[C@@H](C)CC)[C@@H](C)CC)[C@@H](C)CC)[C@@H](C)CC)[C@@H](C)CC)[C@@H](C)CC [compound 2] (H-[Nlys][N(1S-Me-propyl)Gly][N(1S-Me-propyl)Gly][Nlys][N(1S-Me-propyl)Gly][N(1S-Me-propyl)Gly][Nlys][N(1S-Me-propyl)Gly][N(1S-Me-propyl)Gly][Nlys][N(1S-Me-propyl)Gly][N(1S-Me-propyl)Gly]-NH2) | 52.4% |  |  |  | 100 % of control | 100 % of control |  |  | 100 % of control |  | >145^§ µg |  | > 100 µM | completely ineffective | did not cause aggregation
